Experimental data from patent US20220132847A1, “CINNOLINIUM COMPOUNDS FOR USE IN A METHOD OF CONTROLLING UNWANTED PLANT GROWTH” (SYNGENTA CROP PROTECTION AG, priority 2019, published 2022).

Tests used:
Assay in all cases: Post-emergence efficacy, glasshouse
Type in all cases: in vivo
[1] = tested on: Amaranthus palmeri (AMAPA); settings: evaluated after 13 days, 100=total damage to plant, 0=no damage to plant; for pest or weed control at 1000 g/ha / pest or weed control at 500 g/ha: Amaranthus palmeri, post-emergence, 312 h, read-out: Control of weed species after post-emergence application, AMAPA; for pest or weed control at 500 g/ha: Application Rate 500 g/Ha
Procedure: (§1) Seeds of a variety of test species were sown in standard soil in pots. After cultivation for 14 days (post-emergence) under controlled conditions in a glasshouse (at 24/16° C., day/night; 14 hours light; 65% humidity), the plants were sprayed with an aqueous spray solution derived from the dissolution of the technical active ingredient formula (I) in a small amount of acetone and a special solvent and emulsifier mixture referred to as IF50 (11.12% Emulsogen EL360™+44.44% N-methylpyrrolidone+44.44% Dowanol DPM glycol ether), to create a 50 g/l solution which was then diluted to required concentration using 0.25% or 1% Empicol ESC70 (Sodium lauryl ether sulphate)+1% ammonium sulphate in water as diluent.
(§2) The test plants were then grown in a glasshouse under controlled conditions (at 24/16° C., day/night; 14 hours light; 65% humidity) and watered twice daily. After 13 days the test was evaluated (100=total damage to plant; 0=no damage to plant).
(§3) Ipomoea hederacea (IPOHE), Euphorbia heterophylla (EPHHL), Chenopodium album (CHEAL), Amaranthus palmeri (AMAPA), Lolium perenne (LOLPE), Digitaria sanguinalis (DIGSA), Eleusine indica (ELEIN), Echinochloa crus-galli (ECHCG), Setaria faberi (SETFA)

[2] = tested on: Chenopodium album (CHEAL); settings: evaluated after 13 days, 100=total damage to plant, 0=no damage to plant; for pest or weed control at 1000 g/ha / pest or weed control at 500 g/ha: Chenopodium album, post-emergence, 312 h, read-out: Control of weed species after post-emergence application, CHEAL; for pest or weed control at 500 g/ha: Application Rate 500 g/Ha
Procedure: as §1, §2, §3

[3] = tested on: Digitaria sanguinalis (DIGSA); settings: evaluated after 13 days, 100=total damage to plant, 0=no damage to plant; for pest or weed control at 1000 g/ha / pest or weed control at 500 g/ha: Digitaria sanguinalis, post-emergence, 312 h, read-out: Control of weed species after post-emergence application, DIGSA; for pest or weed control at 500 g/ha: Application Rate 500 g/Ha
Procedure: as §1, §2, §3

[4] = tested on: Echinochloa crus-galli (ECHCG); settings: evaluated after 13 days, 100=total damage to plant, 0=no damage to plant; for pest or weed control at 1000 g/ha / pest or weed control at 500 g/ha: Echinochloa crus-galli, post-emergence, 312 h, read-out: Control of weed species after post-emergence application, ECHCG; for pest or weed control at 500 g/ha: Application Rate 500 g/Ha
Procedure: as §1, §2, §3

Eleusine indica (ELEIN) = settings: evaluated after 13 days, 100=total damage to plant, 0=no damage to plant; for pest or weed control at 1000 g/ha / pest or weed control at 500 g/ha: Eleusine indica, post-emergence, 312 h, read-out: Control of weed species after post-emergence application, ELEIN; for pest or weed control at 500 g/ha: Application Rate 500 g/Ha
Procedure: as §1, §2, §3

[5] = tested on: Euphorbia heterophylla (EPHHL); settings: evaluated after 13 days, 100=total damage to plant, 0=no damage to plant; for pest or weed control at 1000 g/ha / pest or weed control at 500 g/ha: Euphorbia heterophylla, post-emergence, 312 h, read-out: Control of weed species after post-emergence application, EPHHL; for pest or weed control at 500 g/ha: Application Rate 500 g/Ha
Procedure: as §1, §2, §3

[6] = tested on: Ipomoea hederacea (IPOHE); settings: evaluated after 13 days, 100=total damage to plant, 0=no damage to plant; for pest or weed control at 1000 g/ha / pest or weed control at 500 g/ha: Ipomoea hederacea, post-emergence, 312 h, read-out: Control of weed species after post-emergence application, IPOHE; for pest or weed control at 500 g/ha: Application Rate 500 g/Ha
Procedure: as §1, §2, §3

Lolium perenne (LOLPE) = settings: evaluated after 13 days, 100=total damage to plant, 0=no damage to plant; for pest or weed control at 1000 g/ha / pest or weed control at 500 g/ha: Lolium perenne, post-emergence, 312 h, read-out: Control of weed species after post-emergence application, LOLPE; for pest or weed control at 500 g/ha: Application Rate 500 g/Ha
Procedure: as §1, §2, §3

Setaria faberi (SETFA) = settings: evaluated after 13 days, 100=total damage to plant, 0=no damage to plant; for pest or weed control at 1000 g/ha / pest or weed control at 500 g/ha: Setaria faberi, post-emergence, 312 h, read-out: Control of weed species after post-emergence application, SETFA; for pest or weed control at 500 g/ha: Application Rate 500 g/Ha
Procedure: as §1, §2, §3

`COP(=O)(O)Cc1c[n+](C)nc2ccccc12` [Compound A53] gave a pest or weed control at 1000 g/ha ([1]; Application Rate 1000 g/Ha) of 100%, a pest or weed control at 1000 g/ha ([2]; Application Rate 1000 g/Ha) of 70% and a pest or weed control at 1000 g/ha ([3]; Application Rate 1000 g/Ha) of 90%. The pest or weed control at 1000 g/ha ([4]; Application Rate 1000 g/Ha) was 80%, the pest or weed control at 1000 g/ha (Eleusine indica (ELEIN); Application Rate 1000 g/Ha) was 100% and the pest or weed control at 1000 g/ha ([5]; Application Rate 1000 g/Ha) was 100%. For the same molecule, the pest or weed control at 1000 g/ha ([6]; Application Rate 1000 g/Ha) was 100%, the pest or weed control at 1000 g/ha (Lolium perenne (LOLPE); Application Rate 1000 g/Ha) was 30% and the pest or weed control at 1000 g/ha (Setaria faberi (SETFA); Application Rate 1000 g/Ha) was 90%.

For “ethoxy-[(2-methylcinnolin-2-ium-4-yl)methyl]phosphinic acid [Compound A51]”, the “Control of weed species after post-emergence application, AMAPA” value ([1]; Application Rate 1000 g/Ha) was 90, the “Control of weed species after post-emergence application, CHEAL” value ([2]; Application Rate 1000 g/Ha) was 60 and the “Control of weed species after post-emergence application, DIGSA” value ([3]; Application Rate 1000 g/Ha) was 90. For the same molecule, the “Control of weed species after post-emergence application, ECHCG” value ([4]; Application Rate 1000 g/Ha) was 70, the “Control of weed species after post-emergence application, ELEIN” value (Eleusine indica (ELEIN); Application Rate 1000 g/Ha) was 80 and the “Control of weed species after post-emergence application, EPHHL” value ([5]; Application Rate 1000 g/Ha) was 90. For the same molecule, the “Control of weed species after post-emergence application, IPOHE” value ([6]; Application Rate 1000 g/Ha) was 60, the “Control of weed species after post-emergence application, LOLPE” value (Lolium perenne (LOLPE); Application Rate 1000 g/Ha) was 20 and the “Control of weed species after post-emergence application, SETFA” value (Setaria faberi (SETFA); Application Rate 1000 g/Ha) was 90.

Molecule `O=P([O-])(O)c1c[n+](CCO)nc2ccccc12` [Compound A67, hydroxy-[2-(2-hydroxyethyl)cinnolin-2-ium-4-yl]phosphinate] has a pest or weed control at 1000 g/ha ([1]; Application Rate 1000 g/Ha) of 30%, a pest or weed control at 1000 g/ha ([2]; Application Rate 1000 g/Ha) of 60% and a pest or weed control at 1000 g/ha ([3]; Application Rate 1000 g/Ha) of 90%. The pest or weed control at 1000 g/ha ([4]; Application Rate 1000 g/Ha) was 20%, the pest or weed control at 1000 g/ha (Eleusine indica (ELEIN); Application Rate 1000 g/Ha) was 10% and the pest or weed control at 1000 g/ha ([5]; Application Rate 1000 g/Ha) was 30%. It also gave a pest or weed control at 1000 g/ha ([6]; Application Rate 1000 g/Ha) of 30%, a pest or weed control at 1000 g/ha (Lolium perenne (LOLPE); Application Rate 1000 g/Ha) of 0% and a pest or weed control at 1000 g/ha (Setaria faberi (SETFA); Application Rate 1000 g/Ha) of 50%.

For `O=C(O)c1c[n+](CCO)nc2ccccc12` [Compound A30], the pest or weed control at 1000 g/ha ([1]; Application Rate 1000 g/Ha) was 100%, the pest or weed control at 1000 g/ha ([2]; Application Rate 1000 g/Ha) was 100% and the pest or weed control at 1000 g/ha ([3]; Application Rate 1000 g/Ha) was 90%. For the same molecule, the pest or weed control at 1000 g/ha ([4]; Application Rate 1000 g/Ha) was 50%, the pest or weed control at 1000 g/ha (Eleusine indica (ELEIN); Application Rate 1000 g/Ha) was 80% and the pest or weed control at 1000 g/ha ([5]; Application Rate 1000 g/Ha) was 100%. The pest or weed control at 1000 g/ha ([6]; Application Rate 1000 g/Ha) was 100%, the pest or weed control at 1000 g/ha (Lolium perenne (LOLPE); Application Rate 1000 g/Ha) was 40% and the pest or weed control at 1000 g/ha (Setaria faberi (SETFA); Application Rate 1000 g/Ha) was 70%.

`COC(=O)CC[n+]1cc(C(=O)[N-]S(=O)(=O)C2CC2)c2ccccc2n1` [Compound A19, cyclopropylsulfonyl-[2-(3-methoxy-3-oxo-propyl)cinnolin-2-ium-4-carbonyl]azanide] was tested, and the pest or weed control at 500 g/ha [1] was 30%, the pest or weed control at 500 g/ha [2] was 60% and the pest or weed control at 500 g/ha [3] was 40%. For the same molecule, the pest or weed control at 500 g/ha [4] was 60%, the pest or weed control at 500 g/ha (Eleusine indica (ELEIN)) was 50% and the pest or weed control at 500 g/ha [5] was 40%. For the same molecule, the pest or weed control at 500 g/ha [6] was 30%, the pest or weed control at 500 g/ha (Lolium perenne (LOLPE)) was 20% and the pest or weed control at 500 g/ha (Setaria faberi (SETFA)) was 0%.

For `CCOP(=O)(O)c1c[n+](CCO)nc2ccccc12` [Compound A69], the pest or weed control at 500 g/ha [1] was 100%, the pest or weed control at 500 g/ha [2] was 90% and the pest or weed control at 500 g/ha [3] was 100%. It also gave a pest or weed control at 500 g/ha [4] of 70%, a pest or weed control at 500 g/ha (Eleusine indica (ELEIN)) of 90% and a pest or weed control at 500 g/ha [5] of 100%. It also gave a pest or weed control at 500 g/ha [6] of 90%, a pest or weed control at 500 g/ha (Lolium perenne (LOLPE)) of 40% and a pest or weed control at 500 g/ha (Setaria faberi (SETFA)) of 90%.
